# Test: Water solubility, HPLC with external standard
# Assay type: physicochemical
structure (smiles),measurement,value
"COc1ccc2cccc(CCNC(C)=O)c2c1 [Agomelatine, N-[2-(7-methoxy-1-naphthyl)ethyl]-acetamide]",solubility,1.11 mg/mL
